In publication PMC3961306, “Comparison of the Cancer Gene Targeting and Biochemical Selectivities of All Targeted Kinase Inhibitors Approved for Clinical Use” (PLoS ONE, 2014):

What was measured:
Experiment in all cases: Kinase profiling in a biochemical assay panel (mobility shift assays and ELISA), %-inhibition at 1 μM; selectivity entropy
[1] = biological target: panel of more than 300 wild-type and mutant kinases (313 kinase panel) (Homo sapiens, UniProt Q16816)
[2] = biological target: T1, panel of more than 300 wild-type and mutant kinases (313 kinase panel) (Homo sapiens, UniProt O15146)
T1 sequence (O15146 24-869): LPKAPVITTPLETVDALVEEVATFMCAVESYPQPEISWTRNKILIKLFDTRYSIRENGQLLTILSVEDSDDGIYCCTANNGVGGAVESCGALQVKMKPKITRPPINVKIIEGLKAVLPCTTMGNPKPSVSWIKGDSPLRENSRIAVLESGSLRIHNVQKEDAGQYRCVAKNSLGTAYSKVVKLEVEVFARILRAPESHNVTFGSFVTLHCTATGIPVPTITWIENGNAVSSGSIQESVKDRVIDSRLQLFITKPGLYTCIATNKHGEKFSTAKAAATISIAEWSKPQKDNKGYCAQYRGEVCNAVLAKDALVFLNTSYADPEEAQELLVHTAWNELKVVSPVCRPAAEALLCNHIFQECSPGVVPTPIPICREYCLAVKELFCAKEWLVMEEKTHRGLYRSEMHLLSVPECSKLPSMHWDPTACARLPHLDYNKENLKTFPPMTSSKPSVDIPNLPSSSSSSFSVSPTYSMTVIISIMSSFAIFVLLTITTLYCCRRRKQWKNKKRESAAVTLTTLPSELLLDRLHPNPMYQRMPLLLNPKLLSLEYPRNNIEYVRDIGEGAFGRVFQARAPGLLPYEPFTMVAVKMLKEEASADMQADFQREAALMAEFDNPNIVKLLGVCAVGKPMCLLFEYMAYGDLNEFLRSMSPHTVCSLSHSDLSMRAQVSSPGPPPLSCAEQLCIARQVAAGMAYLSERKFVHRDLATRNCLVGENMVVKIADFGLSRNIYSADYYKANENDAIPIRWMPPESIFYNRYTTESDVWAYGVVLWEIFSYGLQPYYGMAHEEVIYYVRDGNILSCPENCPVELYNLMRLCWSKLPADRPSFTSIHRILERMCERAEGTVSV

[3] = biological target: panel of more than 300 wild-type and mutant kinases (313 kinase panel) (Homo sapiens, UniProt Q06187)
[4] = biological target: T2, panel of more than 300 wild-type and mutant kinases (313 kinase panel) (Homo sapiens, UniProt Q9NZJ5)
T2 sequence (Q9NZJ5 30-1116): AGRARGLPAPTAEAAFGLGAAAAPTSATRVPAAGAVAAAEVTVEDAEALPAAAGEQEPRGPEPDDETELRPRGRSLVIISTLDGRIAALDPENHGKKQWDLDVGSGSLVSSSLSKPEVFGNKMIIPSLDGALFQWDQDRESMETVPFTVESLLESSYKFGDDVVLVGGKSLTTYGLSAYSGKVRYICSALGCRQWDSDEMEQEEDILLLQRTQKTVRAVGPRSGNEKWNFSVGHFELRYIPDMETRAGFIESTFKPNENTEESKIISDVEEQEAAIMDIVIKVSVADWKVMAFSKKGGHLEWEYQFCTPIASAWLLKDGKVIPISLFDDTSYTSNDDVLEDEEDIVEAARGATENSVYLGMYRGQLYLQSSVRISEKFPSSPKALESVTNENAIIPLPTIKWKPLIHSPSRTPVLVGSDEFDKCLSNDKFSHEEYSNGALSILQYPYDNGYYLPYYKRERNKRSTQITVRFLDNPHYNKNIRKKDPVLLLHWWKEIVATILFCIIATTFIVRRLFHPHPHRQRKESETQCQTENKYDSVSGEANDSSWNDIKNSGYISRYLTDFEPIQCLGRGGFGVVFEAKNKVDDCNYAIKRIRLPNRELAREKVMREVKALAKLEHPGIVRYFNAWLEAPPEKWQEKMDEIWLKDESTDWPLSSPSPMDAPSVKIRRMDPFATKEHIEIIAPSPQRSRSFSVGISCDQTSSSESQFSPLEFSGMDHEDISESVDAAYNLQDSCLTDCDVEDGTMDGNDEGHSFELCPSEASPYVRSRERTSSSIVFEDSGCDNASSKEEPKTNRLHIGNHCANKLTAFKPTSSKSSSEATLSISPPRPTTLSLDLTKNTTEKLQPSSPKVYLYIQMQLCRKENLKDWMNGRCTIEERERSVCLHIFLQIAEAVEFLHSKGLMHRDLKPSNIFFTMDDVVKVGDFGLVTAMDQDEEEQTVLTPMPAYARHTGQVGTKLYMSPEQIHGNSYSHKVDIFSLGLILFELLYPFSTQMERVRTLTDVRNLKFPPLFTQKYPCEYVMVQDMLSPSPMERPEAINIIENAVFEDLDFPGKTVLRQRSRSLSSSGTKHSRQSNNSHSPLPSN

[5] = biological target: panel of more than 300 wild-type and mutant kinases (313 kinase panel) (Homo sapiens, UniProt Q13153)

Sequence of panel of more than 300 wild-type and mutant kinases (313 kinase panel) (Homo sapiens, UniProt Q16816) (Q16816 whole entry, change not shown): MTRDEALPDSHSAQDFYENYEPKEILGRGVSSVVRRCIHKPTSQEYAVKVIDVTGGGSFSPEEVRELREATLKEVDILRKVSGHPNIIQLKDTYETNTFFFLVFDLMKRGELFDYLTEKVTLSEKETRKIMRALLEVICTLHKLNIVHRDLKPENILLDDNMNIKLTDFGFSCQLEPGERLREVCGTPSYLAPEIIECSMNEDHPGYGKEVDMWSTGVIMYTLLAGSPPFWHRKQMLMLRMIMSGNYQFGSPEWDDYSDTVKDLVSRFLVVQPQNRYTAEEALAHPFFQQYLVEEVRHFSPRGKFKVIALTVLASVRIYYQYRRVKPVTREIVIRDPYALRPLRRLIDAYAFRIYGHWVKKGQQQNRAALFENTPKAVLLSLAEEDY

Compound: Cc1ccc(C(=O)Nc2ccc(CN3CCN(C)CC3)c(C(F)(F)F)c2)cc1C#Cc1cnc2cccnn12 [ponatinib]
- %-inhibition of PHKG1 ([1]; kinase PHKG1, 1 μM): 5%
- %-inhibition of MUSK ([2]; kinase MUSK, 1 μM): 100%
- %-inhibition, BTK ([3]; kinase BTK, 1 μM compound): 95%
- %-inhibition of PEK ([4]; kinase PEK, 1 μM): 65%

Compound: CC(C)(C)c1nc(-c2cccc(NS(=O)(=O)c3c(F)cccc3F)c2F)c(-c2ccnc(N)n2)s1 [dabrafenib]
- %-inhibition of PHKG1 ([1]; kinase PHKG1, 1 μM): -0.59%
- %-inhibition of MUSK ([2]; kinase MUSK, 1 μM): 16%
- %-inhibition, BTK ([3]; kinase BTK, 1 μM compound): 60%

Compound: COc1cc(Nc2c(C#N)cnc3cc(OCCCN4CCN(C)CC4)c(OC)cc23)c(Cl)cc1Cl [bosutinib]
- %-inhibition of PHKG1 ([1]; kinase PHKG1, 1 μM): 49%
- %-inhibition of MUSK ([2]; kinase MUSK, 1 μM): 58%
- %-inhibition, BTK ([3]; kinase BTK, 1 μM compound): 97%
- %-inhibition of PEK ([4]; kinase PEK, 1 μM): 11%

Compound: CO[C@H]1C[C@@H]2CC[C@@H](C)[C@@](O)(O2)C(=O)C(=O)N2CCCC[C@H]2C(=O)O[C@H]([C@H](C)C[C@@H]2CC[C@@H](OC(=O)C(C)(CO)CO)[C@H](OC)C2)CC(=O)[C@H](C)/C=C(\C)[C@@H](O)[C@@H](OC)C(=O)[C@H](C)C[C@H](C)/C=C/C=C/C=C/1C [temsirolimus]
- %-inhibition of PHKG1 ([1]; kinase PHKG1, 1 μM): 1.57%
- %-inhibition of PAK1 ([5]; kinase PAK1, 1 μM): -3.8%
- %-inhibition of MUSK ([2]; kinase MUSK, 1 μM): -9%
- %-inhibition, BTK ([3]; kinase BTK, 1 μM compound): 18%
- %-inhibition of PEK ([4]; kinase PEK, 1 μM): 8%

Compound: C#Cc1cccc(Nc2ncnc3cc(OCCOC)c(OCCOC)cc23)c1 [erlotinib]
- %-inhibition of PHKG1 ([1]; 1 µM): 5%
- %-inhibition of PAK1 ([5]; 1 µM): 6.37%
- %-inhibition of MUSK ([2]; 1 µM): 12%
- %-inhibition of PEK ([4]; 1 µM): 1.35%

Compound: CCCS(=O)(=O)Nc1ccc(F)c(C(=O)c2c[nH]c3ncc(-c4ccc(Cl)cc4)cc23)c1F [vemurafenib]
- %-inhibition of PHKG1 ([1]; kinase PHKG1, 1 μM): -0.913%
- %-inhibition of PAK1 ([5]; kinase PAK1, 1 μM): -5%
- %-inhibition of MUSK ([2]; kinase MUSK, 1 μM): -0.285%
- %-inhibition, BTK ([3]; kinase BTK, 1 μM compound): 2%
- %-inhibition of PEK ([4]; kinase PEK, 1 μM): 11%

Compound: N#CC[C@H](C1CCCC1)n1cc(-c2ncnc3[nH]ccc23)cn1 [ruxolitinib]
- %-inhibition of PHKG1 ([1]; 1 µM): 50%
- %-inhibition of PAK1 ([5]; kinase PAK1, 1 μM): -5.62%
- %-inhibition of MUSK ([2]; kinase MUSK, 1 μM): 56%
- %-inhibition, BTK ([3]; 1 µM): -6%
- %-inhibition of PEK ([4]; kinase PEK, 1 μM): -0.459%

Compound: CC(=O)Nc1cccc(-n2c(=O)n(C3CC3)c(=O)c3c(Nc4ccc(I)cc4F)n(C)c(=O)c(C)c32)c1 [trametinib]
- %-inhibition of PHKG1 ([1]; kinase PHKG1, 1 μM): -2.24%
- %-inhibition of PAK1 ([5]; 1 µM): -1.35%
- %-inhibition of MUSK ([2]; kinase MUSK, 1 μM): -0.929%
- %-inhibition, BTK ([3]; kinase BTK, 1 μM compound): 18%
- %-inhibition of PEK ([4]; kinase PEK, 1 μM): 1.13%

Compound: COc1cc2c(Nc3ccc(Br)cc3F)ncnc2cc1OCC1CCN(C)CC1 [vandetanib]
- %-inhibition of PHKG1 ([1]; kinase PHKG1, 1 μM): 68%
- %-inhibition of PAK1 ([5]; kinase PAK1, 1 μM): -5.28%
- %-inhibition of MUSK ([2]; kinase MUSK, 1 μM): 42%
- %-inhibition of PEK ([4]; kinase PEK, 1 μM): 4.69%

Compound: CS(=O)(=O)CCNCc1ccc(-c2ccc3ncnc(Nc4ccc(OCc5cccc(F)c5)c(Cl)c4)c3c2)o1 [lapatinib]
- %-inhibition of PHKG1 ([1]; kinase PHKG1, 1 μM): 4.72%
- %-inhibition of MUSK ([2]; kinase MUSK, 1 μM): 4.38%
- %-inhibition of PEK ([4]; kinase PEK, 1 μM): -0.193%

Compound: CO[C@H]1C[C@@H]2CC[C@@H](C)[C@@](O)(O2)C(=O)C(=O)N2CCCC[C@H]2C(=O)O[C@H]([C@H](C)C[C@@H]2CC[C@@H](OCCO)[C@H](OC)C2)CC(=O)[C@H](C)/C=C(\C)[C@@H](O)[C@@H](OC)C(=O)[C@H](C)C[C@H](C)/C=C/C=C/C=C/1C [everolimus]
- %-inhibition of PHKG1 ([1]; kinase PHKG1, 1 μM): 0.522%
- %-inhibition of PAK1 ([5]; kinase PAK1, 1 μM): -5.39%
- %-inhibition of MUSK ([2]; kinase MUSK, 1 μM): -7%
- %-inhibition, BTK ([3]; kinase BTK, 1 μM compound): 1.16%
- %-inhibition of PEK ([4]; kinase PEK, 1 μM): 5.28%

Compound: CCN(CC)CCNC(=O)c1c(C)[nH]c(/C=C2\C(=O)Nc3ccc(F)cc32)c1C [sunitinib]
- %-inhibition of PHKG1 ([1]; kinase PHKG1, 1 μM): 95%
- %-inhibition of MUSK ([2]; kinase MUSK, 1 μM): 99%

Compound: CNC(=O)c1cc(Oc2ccc(NC(=O)Nc3ccc(Cl)c(C(F)(F)F)c3)c(F)c2)ccn1 [regorafenib]
- %-inhibition of PHKG1 ([1]; kinase PHKG1, 1 μM): 8%
- %-inhibition of PAK1 ([5]; kinase PAK1, 1 μM): -8%
- %-inhibition of MUSK ([2]; kinase MUSK, 1 μM): 80%
- %-inhibition, BTK ([3]; kinase BTK, 1 μM compound): 2.55%
- %-inhibition of PEK ([4]; kinase PEK, 1 μM): 12%

Compound: O=S(=O)(c1cccc2cnccc12)N1CCCNCC1 [fasudil]
- %-inhibition of PHKG1 ([1]; kinase PHKG1, 1 μM): 2.6%
- %-inhibition of MUSK ([2]; kinase MUSK, 1 μM): 2%
- %-inhibition, BTK ([3]; kinase BTK, 1 μM compound): 1.51%
- %-inhibition of PEK ([4]; kinase PEK, 1 μM): -7.4%

Compound: C[C@@H](Oc1cc(-c2cnn(C3CCNCC3)c2)cnc1N)c1c(Cl)ccc(F)c1Cl [crizotinib]
- %-inhibition of PHKG1 ([1]; kinase PHKG1, 1 μM): 2.74%
- %-inhibition of PAK1 ([5]; kinase PAK1, 1 μM): -4%
- %-inhibition of MUSK ([2]; kinase MUSK, 1 μM): 99%
- %-inhibition of PEK ([4]; kinase PEK, 1 μM): 1.1%

Compound: CN(C)C/C=C/C(=O)Nc1cc2c(Nc3ccc(F)c(Cl)c3)ncnc2cc1O[C@H]1CCOC1 [afatinib]
- %-inhibition of PEK ([4]; kinase PEK, 1 μM): 12%

Compound: Cc1cn(-c2cc(NC(=O)c3ccc(C)c(Nc4nccc(-c5cccnc5)n4)c3)cc(C(F)(F)F)c2)cn1 [nilotinib]
- %-inhibition of PHKG1 ([1]; kinase PHKG1, 1 μM): -8%
- %-inhibition of PAK1 ([5]; kinase PAK1, 1 μM): -159%
- %-inhibition of MUSK ([2]; 1 µM): 42%
- %-inhibition, BTK ([3]; kinase BTK, 1 μM compound): 45%
- %-inhibition of PEK ([4]; kinase PEK, 1 μM): 0.387%

Compound: Cc1ccc(Nc2nccc(N(C)c3ccc4c(C)n(C)nc4c3)n2)cc1S(N)(=O)=O [pazopanib]
- %-inhibition of PHKG1 ([1]; kinase PHKG1, 1 μM): 1.52%
- %-inhibition of PAK1 ([5]; kinase PAK1, 1 μM): -0.494%
- %-inhibition of MUSK ([2]; kinase MUSK, 1 μM): 9%
- %-inhibition, BTK ([3]; kinase BTK, 1 μM compound): 13%
- %-inhibition of PEK ([4]; kinase PEK, 1 μM): 2.38%

Compound: COc1cc2nccc(Oc3ccc(NC(=O)C4(C(=O)Nc5ccc(F)cc5)CC4)cc3)c2cc1OC [cabozantinib]
- %-inhibition of PHKG1 ([1]; kinase PHKG1, 1 μM): 53%
- %-inhibition of PAK1 ([5]; kinase PAK1, 1 μM): -2.55%
- %-inhibition of MUSK ([2]; kinase MUSK, 1 μM): 95%
- %-inhibition, BTK ([3]; kinase BTK, 1 μM compound): 93%
- %-inhibition of PEK ([4]; kinase PEK, 1 μM): 79%
